In patent publication US7342032B2 (dated 2008):

O=C(NN1CCCCC1)c1nc(-c2ccc(Cl)cc2Cl)c(-c2ccc(Br)cc2)s1
melting point: 171 to 173 °C

O=C(NN1CCCCCC1)c1nc(-c2ccc(Cl)cc2Cl)c(-c2ccc(Cl)cc2)s1
melting point: 185 to 186 °C

O=C(Nc1ccccc1)c1nc(-c2ccc(Cl)cc2Cl)c(-c2ccc(Cl)cc2)s1
melting point: 167 to 168 °C

O=C(NCCCC(F)(F)F)c1nc(-c2ccc(Cl)cc2Cl)c(-c2ccc(Cl)cc2)s1
melting point: 99 to 101 °C
